Test results as given in patent US20250186405A1, “Compound For Use In Treating Narcolepsy” (Alkermes, Inc., priority 2023, published 2025).

Tests used:
[1] = test system: healthy adult subjects; experiment: Part 2 MAD: treatment-emergent adverse events, once daily for 10 days (N = 6 per dose); type: in vivo, human
Source text: Part 2 of the study is a MAD evaluation in healthy subjects consisting of 4 cohorts: Cohorts 1-4 received powder-in-capsule or matching placebo. Dose levels were as follows:
Safety assessments were made. A plasma PK sample was collected pre-dose on Day 8.

[2] = test system: subjects with narcolepsy type-2 (NT2); details: human, in vivo
Experimental: Part 5 consisted of a 4-way, 4-period crossover study design in approximately 8 subjects (2 subjects per sequence; minimum of 4 subjects with 1 subject per sequence). Subjects were randomized 1:1:1:1 to 1 of 4 sequences with 4 treatment periods (3 single doses of Compound A and 1 dose of matching placebo), with up to 48 hours of washout between treatments. Treatments were administered under fasted state.
Subjects were randomized to 1 of 4 sequences. […] In each period, subjects were administered a single dose of study drug (either Compound A or placebo) as per the randomization schedule with approximately 240 mL of noncarbonated water following overnight fasting. No food was given for at least 3 hours after dose administration (i.e., fast can be broken after the 3-hour PK time point is collected). Water was allowed ad libitum except for 1 hour before and 1 hour after study drug administration. Safety assessments including AEs, safety ECGs, vital signs, and clinical laboratory tests were conducted, and plasma PK samples were collected. Furthermore, BP and HR were monitored once every hour for 12 hours on the dosing days.
Adverse events (AEs) and serious adverse events (SAEs) were monitored continuously until the completion of the study.
Nine subjects with NT2 were dosed in Part 5 (POC in NT2) in a randomized 4-sequence 4-period cross-over design. Each dose of Compound A or matching placebo was separated by 2 days. A 14-day washout period preceded the treatment period and included discontinuation of narcolepsy medications. All 9 subjects underwent the washout period and received at least one dose of Compound A. All subjects completed all 4-way randomized crossover periods.

## CS(=O)(=O)N[C@H]1CCCN2C(=O)COc3ccccc3C3CCC(CC3)OCC12 (stereo partly drawn) [Compound A, N-[(4S,4aR,7α,10α)-1,2,3,4,4a,5,7,8,9,10,16,17-dodecahydro-17-oxo-7,10-ethanopyrido[1,2-d][1,7,4]benzodioxaazacyclotridecin-4-yl]methanesulfonamide]
[1]; 3 mg
  AE Leading to Study Drug Discontinuation: 0 n
  Any SAEs: 0 n
  Any TEAE: 2 n
  Death: 0 n
  TEAE Abdominal pain: 0 n
  TEAE Abdominal pain lower: 0 n
  TEAE Abnormal dreams: 1 n
  TEAE Back pain: 0 n
  TEAE Balance disorder: 0 n
  TEAE Blood pressure systolic increased: 0 n
  TEAE Cough: 1 n
  TEAE Depressed mood: 0 n
  TEAE Diarrhoea: 0 n
  TEAE Dizziness: 0 n
  TEAE Euphoric mood: 0 n
  TEAE Feeling of relaxation: 0 n
  TEAE Headache: 0 n
  TEAE Hypervigilance: 0 n
  TEAE Insomnia: 0 n
  TEAE Nocturia: 0 n
  TEAE Photophobia: 0 n
  TEAE Pollakiuria: 0 n
  TEAE Salivary hypersecretion: 0 n
  TEAE Visual impairment: 0 n
  TEAE Vomiting: 0 n
  TEAE by Highest Relationship: Not Related: 2 n
  TEAE by Highest Relationship: Related: 0 n
  TEAE by Highest Severity: Mild: 2 n
  TEAE by Highest Severity: Moderate: 0 n
  TEAE by Highest Severity: Severe: 0 n
[1]; 8 mg
  AE Leading to Study Drug Discontinuation: 0 n
  Any SAEs: 0 n
  Any TEAE: 5 n
  Death: 0 n
  TEAE Abdominal pain: 1 n
  TEAE Abdominal pain lower: 1 n
  TEAE Abnormal dreams: 0 n
  TEAE Back pain: 0 n
  TEAE Balance disorder: 0 n
  TEAE Blood pressure systolic increased: 0 n
  TEAE Cough: 0 n
  TEAE Depressed mood: 1 n
  TEAE Diarrhoea: 2 n
  TEAE Dizziness: 0 n
  TEAE Euphoric mood: 0 n
  TEAE Feeling of relaxation: 0 n
  TEAE Headache: 0 n
  TEAE Hypervigilance: 1 n
  TEAE Insomnia: 2 n
  TEAE Nocturia: 1 n
  TEAE Photophobia: 1 n
  TEAE Pollakiuria: 0 n
  TEAE Salivary hypersecretion: 0 n
  TEAE Visual impairment: 0 n
  TEAE Vomiting: 1 n
  TEAE by Highest Relationship: Not Related: 3 n
  TEAE by Highest Relationship: Related: 2 n
  TEAE by Highest Severity: Mild: 4 n
  TEAE by Highest Severity: Moderate: 1 n
  TEAE by Highest Severity: Severe: 0 n
[1]; 15 mg
  AE Leading to Study Drug Discontinuation: 0 n
  Any SAEs: 0 n
  Any TEAE: 3 n
  Death: 0 n
  TEAE Abdominal pain: 0 n
  TEAE Abdominal pain lower: 0 n
  TEAE Abnormal dreams: 0 n
  TEAE Back pain: 0 n
  TEAE Balance disorder: 0 n
  TEAE Blood pressure systolic increased: 0 n
  TEAE Cough: 0 n
  TEAE Depressed mood: 0 n
  TEAE Diarrhoea: 0 n
  TEAE Dizziness: 3 n
  TEAE Euphoric mood: 0 n
  TEAE Feeling of relaxation: 0 n
  TEAE Headache: 1 n
  TEAE Hypervigilance: 0 n
  TEAE Insomnia: 1 n
  TEAE Nocturia: 0 n
  TEAE Photophobia: 0 n
  TEAE Pollakiuria: 1 n
  TEAE Salivary hypersecretion: 0 n
  TEAE Visual impairment: 2 n
  TEAE Vomiting: 0 n
  TEAE by Highest Relationship: Not Related: 0 n
  TEAE by Highest Relationship: Related: 3 n
  TEAE by Highest Severity: Mild: 3 n
  TEAE by Highest Severity: Moderate: 0 n
  TEAE by Highest Severity: Severe: 0 n
[1]; 25 mg
  AE Leading to Study Drug Discontinuation: 1 n
  Any SAEs: 0 n
  Any TEAE: 5 n
  Death: 0 n
  TEAE Abdominal pain: 0 n
  TEAE Abdominal pain lower: 0 n
  TEAE Abnormal dreams: 0 n
  TEAE Back pain: 1 n
  TEAE Balance disorder: 1 n
  TEAE Blood pressure systolic increased: 1 n
  TEAE Cough: 0 n
  TEAE Depressed mood: 0 n
  TEAE Diarrhoea: 0 n
  TEAE Dizziness: 3 n
  TEAE Euphoric mood: 1 n
  TEAE Feeling of relaxation: 1 n
  TEAE Headache: 0 n
  TEAE Hypervigilance: 0 n
  TEAE Insomnia: 3 n
  TEAE Nocturia: 0 n
  TEAE Photophobia: 0 n
  TEAE Pollakiuria: 2 n
  TEAE Salivary hypersecretion: 1 n
  TEAE Visual impairment: 1 n
  TEAE Vomiting: 0 n
  TEAE by Highest Relationship: Not Related: 0 n
  TEAE by Highest Relationship: Related: 5 n
  TEAE by Highest Severity: Mild: 4 n
  TEAE by Highest Severity: Moderate: 1 n
  TEAE by Highest Severity: Severe: 0 n
[1]; Total (N = 24)
  AE Leading to Study Drug Discontinuation: 1 n
  Any SAEs: 0 n
  Any TEAE: 15 n
  Death: 0 n
  TEAE Abdominal pain: 1 n
  TEAE Abdominal pain lower: 1 n
  TEAE Abnormal dreams: 1 n
  TEAE Back pain: 1 n
  TEAE Balance disorder: 1 n
  TEAE Blood pressure systolic increased: 1 n
  TEAE Cough: 1 n
  TEAE Depressed mood: 1 n
  TEAE Diarrhoea: 2 n
  TEAE Dizziness: 6 n
  TEAE Euphoric mood: 1 n
  TEAE Feeling of relaxation: 1 n
  TEAE Headache: 1 n
  TEAE Hypervigilance: 1 n
  TEAE Insomnia: 6 n
  TEAE Nocturia: 1 n
  TEAE Photophobia: 1 n
  TEAE Pollakiuria: 3 n
  TEAE Salivary hypersecretion: 1 n
  TEAE Visual impairment: 3 n
  TEAE Vomiting: 1 n
  TEAE by Highest Relationship: Not Related: 5 n
  TEAE by Highest Relationship: Related: 10 n
  TEAE by Highest Severity: Mild: 13 n
  TEAE by Highest Severity: Moderate: 2 n
  TEAE by Highest Severity: Severe: 0 n
[1]; multiple doses 3 to 25 mg once daily for 10 days
  Tolerability: well tolerated
[2]
  TEAE by Preferred Term: Influenza: 1 (11.1) n (%)
